Our source for the IC50, EC50 and CC50 values is ChEMBL document CHEMBL1201862, “PubChem BioAssay data set” (2004).

Molecules are shown by their SMILES. The source made the active and inactive calls.

The target in experiment [1] is T1, Carboxy-terminal domain RNA polymerase II polypeptide A small phosphatase 1 (Homo sapiens, UniProt Q9GZU7).
T1 sequence (Q9GZU7 whole entry): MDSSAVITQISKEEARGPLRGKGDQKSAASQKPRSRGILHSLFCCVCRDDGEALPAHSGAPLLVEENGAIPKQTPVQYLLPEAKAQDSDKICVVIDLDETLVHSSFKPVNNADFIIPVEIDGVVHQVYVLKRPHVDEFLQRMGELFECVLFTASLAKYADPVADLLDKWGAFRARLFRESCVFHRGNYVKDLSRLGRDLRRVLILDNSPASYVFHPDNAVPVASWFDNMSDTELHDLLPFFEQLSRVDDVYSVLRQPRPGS
The experiment can be described thus: inhibitors of CTDSP1, concentration-response testing, biochemical assay, absorbance-based, actives from ultra-high-throughput screening (AID 540297). It counts as functional.

The target in the next experiment is T2, Leucine aminopeptidase (Plasmodium falciparum 3D7, UniProt Q8IL11).
T2 sequence (Q8IL11 whole entry): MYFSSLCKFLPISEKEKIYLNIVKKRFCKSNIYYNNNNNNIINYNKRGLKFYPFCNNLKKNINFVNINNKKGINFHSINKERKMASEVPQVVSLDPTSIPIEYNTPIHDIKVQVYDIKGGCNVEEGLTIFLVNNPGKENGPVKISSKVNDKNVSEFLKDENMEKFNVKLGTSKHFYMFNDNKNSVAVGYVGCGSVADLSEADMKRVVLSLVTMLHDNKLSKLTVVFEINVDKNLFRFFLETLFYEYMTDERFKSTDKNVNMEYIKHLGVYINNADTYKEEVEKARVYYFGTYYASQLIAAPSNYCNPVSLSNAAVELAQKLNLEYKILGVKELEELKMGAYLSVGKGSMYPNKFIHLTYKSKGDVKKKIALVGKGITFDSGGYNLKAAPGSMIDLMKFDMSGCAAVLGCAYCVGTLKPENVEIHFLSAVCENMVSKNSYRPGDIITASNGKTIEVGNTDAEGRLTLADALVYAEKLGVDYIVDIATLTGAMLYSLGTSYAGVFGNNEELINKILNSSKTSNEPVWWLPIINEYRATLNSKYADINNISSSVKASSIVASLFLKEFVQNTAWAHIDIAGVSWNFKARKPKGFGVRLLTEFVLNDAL
Put plainly: P. falciparum M17LAP inhibitors, primary screen, biochemical, fluorogenic H-Leu-NHMec substrate, 1536-well (AID 1619). The class given is functional.

In a further experiment the target is T3, Cysteine protease ATG4B (Homo sapiens, UniProt Q9Y4P1).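 Also: Fluorescence-based dose-response confirmation assay measuring inhibition of ATG4B activity.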
T3 sequence (Q9Y4P1 whole entry): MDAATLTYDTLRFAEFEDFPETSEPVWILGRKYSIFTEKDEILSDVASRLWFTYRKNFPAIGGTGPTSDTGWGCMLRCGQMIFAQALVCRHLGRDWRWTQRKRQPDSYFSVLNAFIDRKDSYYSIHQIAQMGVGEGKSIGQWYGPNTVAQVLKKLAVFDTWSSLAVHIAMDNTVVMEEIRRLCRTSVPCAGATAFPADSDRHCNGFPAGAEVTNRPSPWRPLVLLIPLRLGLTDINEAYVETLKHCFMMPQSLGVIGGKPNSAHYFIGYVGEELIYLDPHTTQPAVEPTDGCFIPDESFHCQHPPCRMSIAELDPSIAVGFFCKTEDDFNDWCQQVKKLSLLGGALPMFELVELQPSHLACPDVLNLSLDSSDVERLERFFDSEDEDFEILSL
The class given is functional.

The target in another experiment is Phospholipase A2 (Homo sapiens, UniProt P04054). The class given is functional.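 Also: confirmatory dose-response counterscreen on phospholipase A2, testing hits that came from an ultra-high-throughput screen for ATG4B inhibitors.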
Another experiment addresses T4, Hexokinase-1 (Homo sapiens, UniProt P19367).
T4 sequence (P19367 whole entry): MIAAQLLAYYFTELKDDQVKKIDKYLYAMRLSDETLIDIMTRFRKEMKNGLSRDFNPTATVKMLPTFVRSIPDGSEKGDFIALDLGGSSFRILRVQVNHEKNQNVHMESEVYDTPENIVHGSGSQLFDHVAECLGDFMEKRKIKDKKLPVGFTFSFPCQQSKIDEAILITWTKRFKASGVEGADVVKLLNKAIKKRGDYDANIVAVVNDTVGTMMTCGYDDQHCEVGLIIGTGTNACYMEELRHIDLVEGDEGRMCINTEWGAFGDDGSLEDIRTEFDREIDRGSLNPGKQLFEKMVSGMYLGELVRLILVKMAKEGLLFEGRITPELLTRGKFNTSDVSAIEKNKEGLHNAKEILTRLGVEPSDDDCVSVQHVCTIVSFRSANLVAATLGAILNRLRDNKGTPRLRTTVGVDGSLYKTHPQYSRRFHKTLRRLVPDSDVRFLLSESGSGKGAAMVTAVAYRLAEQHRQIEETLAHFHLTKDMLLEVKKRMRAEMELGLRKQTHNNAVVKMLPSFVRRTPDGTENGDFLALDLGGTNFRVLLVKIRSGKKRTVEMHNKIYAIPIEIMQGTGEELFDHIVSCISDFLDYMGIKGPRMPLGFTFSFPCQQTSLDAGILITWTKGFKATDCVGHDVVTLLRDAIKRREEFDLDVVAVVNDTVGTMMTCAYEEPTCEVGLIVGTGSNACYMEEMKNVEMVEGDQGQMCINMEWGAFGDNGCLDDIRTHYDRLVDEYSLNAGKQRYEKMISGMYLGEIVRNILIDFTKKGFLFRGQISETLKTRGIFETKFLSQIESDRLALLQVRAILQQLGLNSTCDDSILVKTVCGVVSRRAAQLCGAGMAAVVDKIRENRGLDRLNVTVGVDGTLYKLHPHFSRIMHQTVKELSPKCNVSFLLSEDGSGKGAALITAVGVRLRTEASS
Put plainly: SAR analysis of small molecule inhibitors of hexokinase domain containing I (HKDC1) in the hexokinase 1 selectivity assay. [Related pubchem assays (depositor defined):AID493160, AID493190]. It counts as functional.

The target of a further experiment is T5, Hexokinase HKDC1 (Homo sapiens, UniProt Q2TB90).
T5 sequence (Q2TB90 whole entry): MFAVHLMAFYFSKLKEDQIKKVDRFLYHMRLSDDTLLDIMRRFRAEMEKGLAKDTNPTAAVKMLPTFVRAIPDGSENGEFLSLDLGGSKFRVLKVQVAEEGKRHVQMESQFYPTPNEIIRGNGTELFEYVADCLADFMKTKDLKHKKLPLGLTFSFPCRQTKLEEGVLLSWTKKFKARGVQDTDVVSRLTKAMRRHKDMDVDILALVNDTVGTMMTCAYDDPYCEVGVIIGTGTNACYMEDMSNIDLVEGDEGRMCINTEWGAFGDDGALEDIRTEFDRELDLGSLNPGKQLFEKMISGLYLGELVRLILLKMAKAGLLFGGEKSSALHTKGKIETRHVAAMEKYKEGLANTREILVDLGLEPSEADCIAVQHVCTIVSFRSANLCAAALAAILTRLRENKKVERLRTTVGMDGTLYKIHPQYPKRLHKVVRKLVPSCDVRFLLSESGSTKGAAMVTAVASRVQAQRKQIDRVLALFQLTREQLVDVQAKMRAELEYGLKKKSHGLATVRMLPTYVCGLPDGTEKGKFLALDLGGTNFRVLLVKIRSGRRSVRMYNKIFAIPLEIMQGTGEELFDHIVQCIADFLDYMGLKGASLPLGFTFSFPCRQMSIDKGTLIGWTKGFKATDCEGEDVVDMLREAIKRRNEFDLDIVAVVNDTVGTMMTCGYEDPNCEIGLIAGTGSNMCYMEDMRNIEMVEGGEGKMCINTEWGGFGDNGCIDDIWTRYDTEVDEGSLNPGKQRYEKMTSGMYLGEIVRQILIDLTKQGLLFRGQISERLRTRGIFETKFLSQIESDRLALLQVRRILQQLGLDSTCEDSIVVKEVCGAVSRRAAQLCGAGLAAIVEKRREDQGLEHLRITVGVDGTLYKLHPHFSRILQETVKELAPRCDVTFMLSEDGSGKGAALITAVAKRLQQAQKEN
The experiment can be described thus: SAR analysis of small molecule inhibitors of hexokinase domain containing I (HKDC1). [Related pubchem assays (depositor defined):AID493160, AID493190]. The class given is functional.

Experiment [2] is described as follows: NIH-3T3 fibroblast cytotoxicity, dose response, cytotoxicity control, cell-based, fluorescence, Alamar Blue, secondary assay (AID 2327).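 Also: NIH-3T3 mouse fibroblasts cultured with fluconazole at 8 µg/mL.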 It counts as functional. (Resazurin is reduced to fluorescent resorufin, in cell work by metabolically active cells.)
The target of experiment [3] is ATP-dependent molecular chaperone HSP82 (Candida albicans (strain WO-1) (Yeast), UniProt C4YTQ8). Put plainly: loss of DOC-induced GRE-beta-galactosidase reporter signal, dose response, Hsp90 inhibitor project, S. cerevisiae, luminescence (AID 2400).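 Also: beta-galactosidase luminescence from glucocorticoid response element reporter as proxy for Hsp90 function; inhibitor potency where signal loss means Hsp90 inhibition.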 It counts as functional, cell-based.
Experiment [4] concerns the target T6, Ubiquitin-conjugating enzyme E2 N (Homo sapiens, UniProt P61088).
T6 sequence (P61088 whole entry): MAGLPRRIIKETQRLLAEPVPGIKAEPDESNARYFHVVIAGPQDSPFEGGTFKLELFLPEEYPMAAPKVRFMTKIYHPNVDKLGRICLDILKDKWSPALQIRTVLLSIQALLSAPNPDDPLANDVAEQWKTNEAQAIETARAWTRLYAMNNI
It counts as functional.

The target in experiment [5] is T7, Serine/threonine-protein phosphatase (Candida dubliniensis (strain CD36 / CBS 7987 / NCPF 3949 / NRRLY-17841) (Yeast), UniProt B9W6M3).
T7 sequence (B9W6M3 whole entry): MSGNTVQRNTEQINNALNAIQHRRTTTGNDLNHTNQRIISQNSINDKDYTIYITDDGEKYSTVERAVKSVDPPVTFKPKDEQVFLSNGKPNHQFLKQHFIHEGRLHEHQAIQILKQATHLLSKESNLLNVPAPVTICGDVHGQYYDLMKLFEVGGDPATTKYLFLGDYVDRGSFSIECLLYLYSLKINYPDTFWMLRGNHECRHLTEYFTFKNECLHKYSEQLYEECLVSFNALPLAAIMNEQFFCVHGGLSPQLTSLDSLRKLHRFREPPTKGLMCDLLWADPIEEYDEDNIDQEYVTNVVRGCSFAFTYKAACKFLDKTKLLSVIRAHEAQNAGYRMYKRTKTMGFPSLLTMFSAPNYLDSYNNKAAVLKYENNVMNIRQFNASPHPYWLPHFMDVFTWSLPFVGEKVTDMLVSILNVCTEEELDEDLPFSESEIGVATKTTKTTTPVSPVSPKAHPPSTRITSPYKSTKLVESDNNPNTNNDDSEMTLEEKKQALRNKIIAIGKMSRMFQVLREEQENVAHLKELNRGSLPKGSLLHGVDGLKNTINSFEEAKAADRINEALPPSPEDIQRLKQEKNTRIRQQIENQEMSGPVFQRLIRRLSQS
The experiment can be described thus: calcineurin pathway inhibitors in yeast reporter, dose response, S. cerevisiae, CDRE-lacZ, luminescence, secondary (AID 2388).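 Also: yeast reporter cells carrying a calcineurin-responsive lacZ construct stimulated with calcium chloride; luminescent beta-galactosidase reporter signal in whole cells rather than isolated phosphatase activity; potency for inhibition where a drop in reporter signal means calcineurin blockade.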 The class given is functional, cell-based.

Another experiment deals with T8, Bcl-2-related protein A1 (Mus musculus, UniProt Q07440).
T8 sequence (Q07440 whole entry): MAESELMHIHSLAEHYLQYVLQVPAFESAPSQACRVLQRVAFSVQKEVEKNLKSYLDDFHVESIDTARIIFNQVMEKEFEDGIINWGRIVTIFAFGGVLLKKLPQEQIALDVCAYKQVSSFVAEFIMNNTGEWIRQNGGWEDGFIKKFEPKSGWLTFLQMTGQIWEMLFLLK
The class given is functional.

The target in experiment [6] is T6, Ubiquitin-conjugating enzyme E2 N. It counts as functional. This is another data set of the same source.
Experiment [7] in a line: C. albicans growth with fluconazole, confirmation, fluorescence, retest (AID 2467). It counts as functional, cell-based.
The subject of a further experiment is Vero. The experiment can be described thus: cells. The class given is functional. The settings on record: Chlorocebus sabaeus.

Sequence of Phospholipase A2 (P04054 whole entry): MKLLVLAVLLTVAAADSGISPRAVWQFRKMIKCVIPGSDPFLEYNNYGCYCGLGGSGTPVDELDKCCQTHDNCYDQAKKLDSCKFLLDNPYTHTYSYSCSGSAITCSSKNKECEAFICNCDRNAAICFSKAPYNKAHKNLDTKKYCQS
Sequence of ATP-dependent molecular chaperone HSP82 (C4YTQ8 whole entry): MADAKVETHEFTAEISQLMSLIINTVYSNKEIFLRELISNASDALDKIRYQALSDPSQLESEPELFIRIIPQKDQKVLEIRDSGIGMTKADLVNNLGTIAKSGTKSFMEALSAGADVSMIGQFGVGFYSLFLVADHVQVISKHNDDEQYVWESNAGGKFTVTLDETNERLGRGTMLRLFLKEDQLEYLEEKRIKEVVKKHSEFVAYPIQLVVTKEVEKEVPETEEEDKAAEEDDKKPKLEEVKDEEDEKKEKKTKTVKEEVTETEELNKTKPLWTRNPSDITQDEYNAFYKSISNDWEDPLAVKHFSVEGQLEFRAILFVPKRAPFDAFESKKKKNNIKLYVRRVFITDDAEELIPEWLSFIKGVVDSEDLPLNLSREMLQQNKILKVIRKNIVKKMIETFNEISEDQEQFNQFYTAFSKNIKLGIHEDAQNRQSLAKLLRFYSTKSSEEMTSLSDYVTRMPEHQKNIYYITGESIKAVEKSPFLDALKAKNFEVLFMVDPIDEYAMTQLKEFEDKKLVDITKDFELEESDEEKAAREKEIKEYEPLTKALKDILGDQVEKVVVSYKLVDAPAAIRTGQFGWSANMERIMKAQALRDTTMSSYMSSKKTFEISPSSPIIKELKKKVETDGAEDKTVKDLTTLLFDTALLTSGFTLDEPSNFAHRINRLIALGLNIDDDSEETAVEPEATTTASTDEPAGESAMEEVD

Turning to `CCOC(=O)c1ccc(/C=C2/C=C(c3ccccc3)N(c3ccc(Cl)c(C(=O)O)c3)C2=O)cc1`, the IC50 (as a rule, the point on the concentration scale where inhibition reaches its midpoint) was 5.15 µM (active) in [1], 29.5 µM (active) at Leucine aminopeptidase, 12.3 µM (active) at Cysteine protease ATG4B and 8.04 µM (active) at Phospholipase A2.
Turning to `Cc1ccc(/C=C/c2nc3ccccc3c(=O)n2Cc2ccccc2)cc1`, the IC50 at Hexokinase-1 and on Hexokinase HKDC1 was > 80 µM (inactive) each time.
Consider `c1ccc(CSc2nnc3c(n2)OC(c2ccco2)Nc2ccccc2-3)cc1` (stereo not given), for which the IC50 on Cysteine protease ATG4B was 43 µM (inactive); at Phospholipase A2, 40.1 µM (inactive).
Turning to `Cc1cc(C)cc(OCC(=O)NNC(=S)NC(=O)C2CC2)c1`, the half-maximal effective concentration (EC50) (usually the concentration that produces a half-maximal response) was 43.5 µM (active) in experiment [2], 17.8 µM (active) in experiment [3], > 180 µM (inactive) in [5] and 0.962 µM (active) in [7]. The IC50 in experiment [4] is 7.38 µM (active); on Bcl-2-related protein A1 it was > 20 µM (inactive); in [6], 7.6 µM (active). For the same compound, the cytotoxic concentration (CC50) (as a rule, the concentration giving 50% cytotoxicity) in the experiment on Vero is > 25 µM (active).
On to `COc1cc2c(cc1OC)-c1cc(NCc3ccc4c(c3)OCO4)nc(=O)n1CC2`, for which the IC50 at Hexokinase-1 and at Hexokinase HKDC1 was > 80 µM (inactive) each time.
Consider `CN(C)c1ccc(/C=C/c2nc3ccccc3c(=O)n2Cc2ccccc2)cc1`, for which the IC50 on Hexokinase-1 and on Hexokinase HKDC1 was > 80 µM (inactive) throughout.
